Reference: patent publication US10722496B2, “2-iminobiotin for use in the treatment of brain cell injury” (Neurophyxia B.V., priority 2015, dated 2020)
Values joined by “and” are separate entries in the source; they are usually repeats but may differ in a detail not shown here. Equal entries are not always repeated.

Assays:
IMR-32 cells [1] = assay: Hydrogen peroxide in culture medium; type: cell-based, human; details: 30 ng/ml 2-IB, data not shown
PARP, akt and erkl/2 = assay: Western blotting for PARP, akt and erkl/2 under mild hypothermia; type: cell-based, human; details: post-hypoxic addition (30 ng/ml)
Protocol: In-vitro hypoxia was induced for 7 hours using IMR-32 cell cultures. After the hypoxic insult, cultures were subjected to 25 hours of mild hypothermia (33.5° C.) and were incubated with or without 2-IB (10, 30, 50, 100 and 300 ng/ml). Cell morphology was evaluated by brightfield microscopy and cell damage was analyzed by LDH assays. Production of reactive oxygen species (ROS) was measured using fluorometric assays. Western blotting for PARP and phosphorylated as well as unphosphorylated akt and erkl/2 was performed.

[2] = Pharmacokinetics in adults after out of hospital cardiac arrest (Example 5B); type: in vivo, human; set-up: Obs. AUCinf (based on weight): unit not given here
Protocol: Namely, a first cohort of eight patients received 2-IB in a dose of 0.055 mg/kg/dose every 4 hours iv, 6 times in total (part A; i.e., 0.33 mg/kg/day).
The eight adults that suffered an out of hospital cardiac arrest were treated with 2-IB as a 15-minute IV infusion every 4 hours for 6 administrations. Target temperature management was used to maintain body temperature of 36.0 (median).
Models were generated in order to determine the impact of dose adjustments and variability of AUC.
An exploratory covariate analysis was performed looking at body weight, age, eGFR, SeCre, and Core temperature.

IMR-32 cells [3] = assay: LDH cytotoxicity assay, hypoxia-induced cell damage; type: cell-based, human; details: 10 ng/ml 2-IB, 17 hours after hypoxia
[4] = Table 4, basic model, Max of 8 patients
[5] = Table 4, basic model, Mean of 8 patients
[6] = Table 4, basic model, Median of 8 patients
[7] = Table 4, basic model, Min of 8 patients
[8] = Table 4, basic model, OHCA patients, 0.055 mg/kg/dose iv every 4 hours x6, individual patient (ID 1-8), 0.055 mg/kg
[9] = Table 5, covariate model with Crea0, Max of 8 patients
[10] = Table 5, covariate model with Crea0, Mean of 8 patients
[11] = Table 5, covariate model with Crea0, Median of 8 patients
[12] = Table 5, covariate model with Crea0, Min of 8 patients
[13] = Table 5, covariate model with Crea0, OHCA patients, 0.055 mg/kg/dose iv every 4 hours x6, individual patient (ID 1-8), 0.055 mg/kg
[14] = Table 9, eGFR0 (eGFR at baseline) model, OHCA patients, 0.055 mg/kg/dose iv every 4 hours x6, individual patient (ID 1-8), 0.055 mg/kg
[15] = Table 9, eGFR0 model, Max of 8 patients
[16] = Table 9, eGFR0 model, Mean of 8 patients
[17] = Table 9, eGFR0 model, Median of 8 patients
[18] = Table 9, eGFR0 model, Min of 8 patients
[19] = exploratory covariate analysis, 8 OHCA patients

## N=C1N[C@H]2[C@H](CS[C@H]2CCCCC(=O)O)N1 [2-IB, 2-iminobiotin]
IMR-32 cells [1]
  hypoxia-induced release of hydrogen peroxide: did not attenuate the hypoxia-induced release of hydrogen peroxide
PARP, akt and erkl/2
  cleavage of PARP, akt and erkl/2 phosphorylation: did not influence cleavage or phosphorylation of the mentioned molecules
[2]; [4]
  AUC cumul.: 5613 ng·h/mL
  AUCinf: 1242 ng·h/mL
  CL: 22.3 L/h
  V: 33.6 L
  VSS: 43.5 L
  thalf: 6.3 h
[2]; [5]
  AUC cumul.: 3238 ng·h/mL
  AUCinf: 625 ng·h/mL
  CL: 11.7 L/h
  V: 14.9 L
  VSS: 24.9 L
  thalf: 2.5 h
[2]; [6]
  AUC cumul.: 2777 ng·h/mL
  AUCinf: 478 ng·h/mL
  CL: 9.5 L/h
  V: 12.7 L
  VSS: 22.7 L
  thalf: 1.6 h
[2]; [7]
  AUC cumul.: 1236 ng·h/mL
  AUCinf: 209 ng·h/mL
  CL: 4.9 L/h
  V: 5.0 L
  VSS: 14.9 L
  thalf: 1.0 h
[2]; [8]
  AUC cumul.: 5613 ng·h/mL and 4680 ng·h/mL and 3521 ng·h/mL and 5386 ng·h/mL and 1858 ng·h/mL and 2032 ng·h/mL and 1236 ng·h/mL and 1577 ng·h/mL
  AUCinf: 1152 ng·h/mL and 860 ng·h/mL and 612 ng·h/mL and 1242 ng·h/mL and 315 ng·h/mL and 343 ng·h/mL and 209 ng·h/mL and 265 ng·h/mL
  CL: 6.4 L/h and 5.8 L/h and 7.6 L/h and 4.9 L/h and 11.4 L/h and 18.3 L/h and 22.3 L/h and 16.7 L/h
  V: 24.3 L and 11.3 L and 7.3 L and 33.6 L and 5.0 L (2×) and 14.1 L and 19.0 L
  VSS: 34.3 L and 21.3 L and 17.3 L and 43.5 L and 15.0 L and 24.1 L and 28.9 L and 14.9 L
  thalf: 3.9 h and 2.8 h and 1.9 h and 6.3 h and 1.3 h and 1.2 h (2×) and 1.0 h
[2]; [9]
  AUC cumul.: 5934 ng·h/mL
  AUCinf: 1235 ng·h/mL
  CL: 17.9 L/h
  V: 34.1 L
  VSS: 43.4 L
  thalf: 5.4 h
[2]; [10]
  AUC cumul.: 3226 ng·h/mL
  AUCinf: 614 ng·h/mL
  CL: 11.0 L/h
  V: 15.4 L
  VSS: 24.7 L
  thalf: 2.3 h
[2]; [11]
  AUC cumul.: 2405 ng·h/mL
  AUCinf: 408 ng·h/mL
  CL: 10.2 L/h
  V: 13.2 L
  VSS: 22.5 L
  thalf: 1.5 h
[2]; [12]
  AUC cumul.: 1615 ng·h/mL
  AUCinf: 271 ng·h/mL
  CL: 5.6 L/h
  V: 4.7 L
  VSS: 14.0 L
  thalf: 1.0 h
[2]; [13]
  AUC cumul.: 5934 ng·h/mL and 4803 ng·h/mL and 2726 ng·h/mL and 4886 ng·h/mL and 2063 ng·h/mL and 2085 ng·h/mL and 1694 ng·h/mL and 1615 ng·h/mL
  AUCinf: 1235 ng·h/mL and 884 ng·h/mL and 464 ng·h/mL and 1063 ng·h/mL and 349 ng·h/mL and 352 ng·h/mL and 291 ng·h/mL and 271 ng·h/mL
  CL: 6.0 L/h and 5.6 L/h and 10.0 L/h and 5.7 L/h and 10.3 L/h and 17.9 L/h and 16.0 L/h and 16.3 L/h
  V: 24.5 L and 11.8 L and 7.2 L and 34.1 L and 4.7 L and 14.5 L and 21.3 L and 5.1 L
  VSS: 33.8 L and 21.1 L and 16.5 L and 43.4 L and 14.0 L and 23.8 L and 30.6 L and 14.4 L
  thalf: 4.1 h and 2.8 h and 1.4 h and 5.4 h and 1.3 h and 1.2 h and 1.5 h and 1.0 h
[2]; Table 8, covariate model with Crea0, individual patient (ID 1-8)
  Obs. AUCinf (based on weight): 291 and 271 and 1235 and 884 and 464 and 1063 and 349 and 352
[2]; [14]
  AUC: 5905 ng·h/mL and 4813 ng·h/mL and 2712 ng·h/mL and 4896 ng·h/mL and 2060 ng·h/mL and 2061 ng·h/mL and 1705 ng·h/mL and 1636 ng·h/mL
  AUCinf: 1227 ng·h/mL and 886 ng·h/mL and 462 ng·h/mL and 1067 ng·h/mL and 349 ng·h/mL and 348 ng·h/mL and 292 ng·h/mL and 274 ng·h/mL
  CL: 6.0 L/h and 5.6 L/h and 10.1 L/h and 5.7 L/h and 10.3 L/h and 18.1 L/h and 15.9 L/h and 16.1 L/h
  V: 24.5 L and 11.8 L and 7.3 L and 34.2 L and 4.7 L and 14.8 L and 21.1 L and 5.0 L
  VSS: 33.8 L and 21.1 L and 16.5 L and 43.5 L and 14.0 L and 24.1 L and 30.4 L and 14.3 L
  thalf: 4.1 h and 2.8 h and 1.4 h and 5.4 h and 1.3 h and 1.2 h and 1.5 h and 1.0 h
[2]; [15]
  AUC: 5905 ng·h/mL
  AUCinf: 1227 ng·h/mL
  CL: 18.1 L/h
  V: 34.2 L
  VSS: 43.5 L
  thalf: 5.4 h
[2]; [16]
  AUC: 3224 ng·h/mL
  AUCinf: 613 ng·h/mL
  CL: 11.0 L/h
  V: 15.4 L
  VSS: 24.7 L
  thalf: 2.3 h
[2]; [17]
  AUC: 2387 ng·h/mL
  AUCinf: 405 ng·h/mL
  CL: 10.2 L/h
  V: 13.3 L
  VSS: 22.6 L
  thalf: 1.5 h
[2]; [18]
  AUC: 1636 ng·h/mL
  AUCinf: 274 ng·h/mL
  CL: 5.6 L/h
  V: 4.7 L
  VSS: 14.0 L
  thalf: 1.0 h
[2]; Table 10, covariate model with eGFR, individual patient (ID 1-8)
  Obs. AUCinf (based on weight): 292 and 274 and 1227 and 886 and 462 and 1067 and 349 and 348
[2]; Table 10, Max of 8 patients
  Obs. AUCinf (based on weight): 1227
[2]; Table 10, Mean of 8 patients
  Obs. AUCinf (based on weight): 613
[2]; Table 10, Median of 8 patients
  Obs. AUCinf (based on weight): 405
[2]; Table 10, Min of 8 patients
  Obs. AUCinf (based on weight): 274
[2]; [19]
  influence of body weight on clearance: not influenced by body weight
  influence of body weight on volume: influenced by body weight
[2]; renal function as Serum Creatinine or eGFR before treatment, exploratory covariate analysis
  influence of renal function on clearance: appears to be influenced be renal function
IMR-32 cells [3]; hypoxia
  LDH/total LDH: 0.15±0.03
IMR-32 cells [3]; normoxia
  LDH/total LDH: 0.09±0.02
